In ChEMBL document CHEMBL1201862, “PubChem BioAssay data set” (2004):
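Tested at 5 concentrations; 48 h exposure; 96-well plates; endpoints linearly interpolated, else capped at highest concentration. GI50 is the concentration that inhibits growth by half.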 Calls of active or inactive are those of the source. Cut-off read from the data, not from the text of the source: active = GI50 up to about 1.1 µM and inactive = higher.

Assays:
Assay in all cases: growth of human tumour cells (NCI), 48 h
SF-539 = test system: SF-539
OVCAR-8 = test system: OVCAR-8
HCC 2998 = test system: HCC 2998
NCI-H23 = test system: NCI-H23
EKVX = test system: EKVX
HCT-116 = test system: HCT-116
NCI-H522 = test system: NCI-H522
Malme-3M = test system: Malme-3M
CAKI-1 = test system: CAKI-1
HCT-15 = test system: HCT-15
SK-MEL-28 = test system: SK-MEL-28
NCI-H226 = test system: NCI-H226
SF-268 = test system: SF-268
M14 = test system: M14
HOP-92 = test system: HOP-92
HL-60 = test system: HL-60
A498 = test system: A498

Row | SMILES | GI50 (SF-539) | GI50 (OVCAR-8) | GI50 (HCC 2998) | GI50 (NCI-H23) | GI50 (EKVX) | GI50 (HCT-116) | GI50 (NCI-H522) | GI50 (Malme-3M) | GI50 (CAKI-1) | GI50 (HCT-15) | GI50 (SK-MEL-28) | GI50 (NCI-H226) | GI50 (SF-268) | GI50 (M14) | GI50 (HOP-92) | GI50 (HL-60) | GI50 (A498)
1 | Cc1nc(Nc2ccccc2)sc1C(=O)CC(=O)C(=O)Nc1c(C(C)C)cccc1C(C)C | > 100 µM (inactive) | > 100 µM (inactive) | > 100 µM (inactive) | 85.5 µM (inactive) | 19.8 µM (inactive) | > 100 µM (inactive) | > 100 µM (inactive) | > 100 µM (inactive) | 66.2 µM (inactive) | 98.9 µM | > 100 µM (inactive) | > 100 µM (inactive) | > 100 µM (inactive) | > 100 µM (inactive) | 32.6 µM (inactive) | 67.9 µM (inactive) | 
2 | Cc1cc(NS(=O)(=O)c2ccc(Nc3c4ccccc4nc4c(C(=O)NCCN(C)C)ccc(Cl)c34)cc2)no1 | 3.14 µM (inactive) | 1.12 µM (active) | 3.21 µM (inactive) | 3.05 µM (inactive) | 8.34 µM (inactive) | 3.3 µM (inactive) | 0.54 µM (active) |  |  | 5.14 µM | 4.41 µM (inactive) | 1.85 µM (inactive) | 2.15 µM (inactive) | 5.25 µM (inactive) |  | 1.14 µM (inactive) | 
3 | CCOC(=O)c1ccc(/N=C\c2ccc(N(CCC#N)CCC#N)cc2)cc1 | 45.5 µM (inactive) | 89.1 µM (inactive) |  | > 100 µM (inactive) | > 100 µM (inactive) | 48 µM (inactive) | 49.5 µM (inactive) | > 100 µM (inactive) | > 100 µM (inactive) | 21.4 µM | > 100 µM (inactive) | > 100 µM (inactive) | 84.7 µM (inactive) | 36.5 µM (inactive) | > 100 µM (inactive) | 80.9 µM (inactive) | > 100 µM (inactive)
4 | CCCCCCCCCCNCCSSCc1ccc(Cl)cc1 | 1.95 µM (inactive) | 2.07 µM (inactive) | 1.89 µM (inactive) |  | 3.06 µM (inactive) | 1.73 µM (inactive) | 1.61 µM (inactive) | 2.95 µM (inactive) | 2.18 µM (inactive) | 2.48 µM | 0.366 µM (active) |  | 0.631 µM (active) | 0.233 µM (active) |  | 1.75 µM (inactive) | 10.2 µM (inactive)
5 | Cc1ccc(C2=C(c3ccccc3)C(O)(c3ccc(C)cc3)C(c3ccccc3)=C2c2ccc(C)cc2)cc1 | > 100 µM (inactive) | > 100 µM (inactive) | > 100 µM (inactive) | 1.91 µM (inactive) | 72.1 µM (inactive) | > 100 µM (inactive) |  | > 100 µM (inactive) | 99.5 µM (inactive) | > 100 µM | > 100 µM (inactive) |  | > 100 µM (inactive) | 82 µM (inactive) | > 100 µM (inactive) | 14.4 µM (inactive) | > 100 µM (inactive)
6 | O/N=C1/C(=C/c2ccc(Br)cc2)CCCC1C(NO)c1ccc(Br)cc1 (configuration not stated) | 22.4 µM (inactive) | 16.1 µM (inactive) |  | > 10 µM (inactive) | > 10 µM (inactive) | 16.5 µM (inactive) | 16 µM (inactive) | 15.7 µM (inactive) |  | 17.3 µM | 18.6 µM (inactive) |  | 13.6 µM (inactive) | 15.4 µM (inactive) | 12.6 µM (inactive) | > 100 µM (inactive) | 10.3 µM (inactive)
7 | CC1=C(/C(C)=N/NC(=O)c2ccccc2O)C(C)C(/C(C)=N/NC(=O)c2ccccc2O)=C(C)N1 | 20 µM (inactive) | 16.8 µM (inactive) |  | 13 µM (inactive) | 14.7 µM (inactive) | 18.5 µM (inactive) | 17.5 µM (inactive) | 29.4 µM (inactive) | 28.1 µM (inactive) | 22.8 µM | 21.8 µM (inactive) |  | 25.6 µM (inactive) | 30.2 µM (inactive) | 28.8 µM (inactive) | 5.04 µM (inactive) | 27.8 µM (inactive)
8 | O=C1[C@H]2ON(c3ccccc3)C(c3ccccc3F)[C@H]2C(=O)N1c1ccc(Cc2ccc(N3C(=O)[C@@H]4ON(c5ccccc5)C(c5ccccc5F)[C@@H]4C3=O)cc2)cc1 (some centres not stated) | > 100 µM (inactive) |  | > 100 µM (inactive) | > 100 µM (inactive) |  |  |  | > 100 µM (inactive) | > 100 µM (inactive) | > 100 µM | > 100 µM (inactive) | > 100 µM (inactive) | > 100 µM (inactive) | 34.8 µM (inactive) | 21.5 µM (inactive) | > 100 µM (inactive) | > 100 µM (inactive)
9 | NC(Cc1ccccc1)C(=O)OCN1C(=O)C2C3C=CC(C2C1=O)C1C2C(=O)N(COC(=O)C(N)Cc4ccccc4)C(=O)C2C31 (configuration not stated) | 22.2 µM (inactive) | 23.7 µM (inactive) |  | 20.2 µM (inactive) | > 100 µM (inactive) | 16.3 µM (inactive) |  |  |  | 17.8 µM | 22.9 µM (inactive) | 46.7 µM (inactive) | 25.9 µM (inactive) | 20.4 µM (inactive) | 32 µM (inactive) | 23.7 µM (inactive) | 
10 | C#CC[N+](C)(CC#C)CC#C |  | > 100 µM (inactive) | > 100 µM (inactive) | > 100 µM (inactive) | > 100 µM (inactive) |  | > 100 µM (inactive) | > 100 µM (inactive) | > 100 µM (inactive) | > 100 µM | > 100 µM (inactive) |  | > 100 µM (inactive) | > 100 µM (inactive) | > 100 µM (inactive) | > 100 µM (inactive) | 
11 | CC(=O)OC1C=CC2CCN3C(=O)c4cc5c(cc4[C@H]1C23)OCO5 (some centres not stated) | > 100 µM (inactive) | > 100 µM (inactive) | > 10 µM (inactive) | > 100 µM (inactive) | > 100 µM (inactive) | > 100 µM (inactive) | > 100 µM (inactive) | > 100 µM (inactive) |  | > 100 µM | > 100 µM (inactive) | > 100 µM (inactive) | > 100 µM (inactive) | > 100 µM (inactive) |  | > 100 µM (inactive) | 
12 | C[N+](C)(C)CC1CCC(C[N+](C)(C)C)C1=NO (configuration not stated) | > 100 µM (inactive) | > 100 µM (inactive) |  | > 100 µM (inactive) | > 100 µM (inactive) | > 100 µM (inactive) | > 100 µM (inactive) | > 100 µM (inactive) |  | > 100 µM | > 100 µM (inactive) | > 100 µM (inactive) | > 100 µM (inactive) | > 100 µM (inactive) |  | > 100 µM (inactive) | > 100 µM (inactive)
13 | Cn1c(=O)nc2n(-c3cccc(Cl)c3)c3ccccc3nc-2c1=O | 16 µM (inactive) | 18 µM (inactive) | 10.7 µM (inactive) | 5.9 µM (inactive) | 12 µM (inactive) | 13.8 µM (inactive) | 15.1 µM (inactive) | 3.5 µM (inactive) | 33.7 µM (inactive) | 13 µM |  | 22 µM (inactive) | 18.2 µM (inactive) | 7.93 µM (inactive) |  |  | 30.5 µM (inactive)
14 | Cc1cc(OC(=O)c2c(C)cc(OC(=O)c3c(C)cc(O)cc3O)cc2O)cc(O)c1C(=O)O [GYROPHORIC ACID] | > 100 µM (inactive) | > 100 µM (inactive) | > 100 µM (inactive) | > 100 µM (inactive) | > 100 µM (inactive) |  | > 100 µM (inactive) | > 100 µM (inactive) | > 100 µM (inactive) |  | > 100 µM (inactive) |  | > 100 µM (inactive) | > 100 µM (inactive) | 69.5 µM (inactive) | > 100 µM (inactive) | > 100 µM (inactive)
